Literature values as cited in patent US8158147B2, “Modified release formulations of at least one form of tramadol” (priority 2002, dated 2012).
Read-outs that look alike come from different tables or passages of the source.

Tests used:
[1] = tested on: osteoarthritis; settings: Study No. 058; 6 weeks; rofecoxib 12.5 mg, Nabumetone 1500 mg
[2] = tested on: osteoarthritis; settings: 12 weeks, celecoxib 100 mg BID, Naproxen 500 mg BID

Row | SMILES | WOMAC pain walking on a flat surface, mean difference vs placebo [1] [mm] | LS mean difference in pain VAS change from baseline vs placebo ([2]; Study No. 020) [mm] | LS mean difference in pain VAS change from baseline vs placebo ([2]; Study No. 054) [mm]
1 | COc1ccc2cc(CCC(C)=O)ccc2c1 [Nabumetone] | 10 | – | –
2 | COc1ccc2cc([C@H](C)C(=O)O)ccc2c1 [Naproxen] | – | 7.6 | 11.2
3 | CS(=O)(=O)c1ccc(C2=C(c3ccccc3)C(=O)OC2)cc1 [rofecoxib, Rofecoxib] | 9.0 | – | –
